In patent US9833497B2, “Human originated EGF domain proteins and use of the same” (CHENGDU SOURCEBIO LIMITED-LIABILITY COMPANY, priority 2013, dated 2017):

Key:
Type in all cases: cell-based
Pseudomonas aeruginosa = assay: MIC against Gram-negative bacteria: Pseudomonas aeruginosa; conditions: for MIC: P. aeruginosa; for MIC / MIC P. aeruginosa: 10 h cultivation at 37° C.; for MIC P. aeruginosa: two-fold serial dilution; for MIC against P. aeruginosa: 96-well plate, 37° C., 10 h
In short: (§1)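 Antibacterial activity of purified human EGF domain proteins: two-fold concentration series, triplicate wells, LB broth, 5×10^5 CFU/mL bacteria, 37° C shaking incubation. The lowest concentration without growth defines the MIC.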

Enterobacter cloacae = assay: MIC against Gram-negative bacteria: Enterobacter cloacae; conditions: for MIC: E. cloacae; for MIC / MIC E. cloacae: 10 h cultivation at 37° C.; for MIC E. cloacae: two-fold serial dilution; for MIC against E. cloacae: 96-well plate, 37° C., 10 h
In short: as §1

Citrobacter diversus = assay: MIC against Gram-negative bacteria: Citrobacter diversus; conditions: for MIC: C. diversus; for MIC / MIC C. diversus: 10 h cultivation at 37° C.; for MIC C. diversus: two-fold serial dilution; for MIC against C. diversus: 96-well plate, 37° C., 10 h
In short: as §1

Proteus vulgaris = assay: MIC against Gram-negative bacteria: Proteus vulgaris; conditions: for MIC: P. vulgaris; for MIC / MIC P. vulgaris: 10 h cultivation at 37° C.; for MIC P. vulgaris: two-fold serial dilution; for MIC against P. vulgaris: 96-well plate, 37° C., 10 h
In short: as §1

Aeromonas hydrophila = assay: MIC against Gram-negative bacteria: Aeromonas hydrophila; conditions: for MIC: A. hydrophila; for MIC / MIC A. hydrophila: 10 h cultivation at 37° C.; for MIC A. hydrophila: two-fold serial dilution; for MIC against A. hydrophila: 96-well plate, 37° C., 10 h
In short: as §1

Klebsiella pneumonia = assay: MIC against Gram-negative bacteria: Klebsiella pneumonia; conditions: for MIC: K. pneumonia; for MIC / MIC K. pneumonia: 10 h cultivation at 37° C.; for MIC K. pneumonia: two-fold serial dilution; for MIC against K. pneumonia: 96-well plate, 37° C., 10 h
In short: as §1

E. coli DH5α = assay: Antibacterial activity: MIC and growth curve against E. coli DH5α in 96-well plate; conditions: minimal inhibitory concentration against E. coli DH5α; 96-well plate, 5×10^5 CFU/mL, 37° C., judged after 8 h
In short: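 Log-phase bacteria (OD600 ~0.5) resuspended in LB at 5×10^5 CFU/mL, exposed to recombinant protein at 50, 25, 12.5 μg/mL final in triplicate, 37 °C shaking at 175 rpm. OD600 read every 30 min; MIC is lowest concentration showing no growth.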

Serratia marcescens = assay: MIC against Gram-negative bacteria: Serratia marcescens; conditions: for MIC: S. marcescens; for MIC / MIC S. marcescens: 10 h cultivation at 37° C.; for MIC S. marcescens: two-fold serial dilution; for MIC against S. marcescens: 96-well plate, 37° C., 10 h
In short: as §1

Proteus mirabilis = assay: MIC against Gram-negative bacteria: Proteus mirabilis; conditions: for MIC: P. mirabilis; for MIC / MIC P. mirabilis: 10 h cultivation at 37° C.; for MIC P. mirabilis: two-fold serial dilution; for MIC against P. mirabilis: 96-well plate, 37° C., 10 h
In short: as §1

Moraxella catarrhalis = assay: MIC against Gram-negative bacteria: Moraxella catarrhalis; conditions: for MIC: M. catarrhalis; for MIC / MIC M. catarrhalis: 10 h cultivation at 37° C.; for MIC M. catarrhalis: two-fold serial dilution; for MIC against M. catarrhalis: 96-well plate, 37° C., 10 h
In short: as §1

E. coli BL21 = assay: MIC against Gram-negative bacteria: E. coli BL21; conditions: for MIC / MIC E. coli BL21: 10 h cultivation at 37° C.; for MIC E. coli BL21: two-fold serial dilution; for MIC against E. coli BL21: 96-well plate, 37° C., 10 h
In short: as §1

[1] = Pseudomonas aeruginosa, 5×10^5 CFU/mL
[2] = Enterobacter cloacae, 5×10^5 CFU/mL
[3] = Citrobacter diversus, 5×10^5 CFU/mL
[4] = Proteus vulgaris, 5×10^5 CFU/mL
[5] = Aeromonas hydrophila, 5×10^5 CFU/mL
[6] = Klebsiella pneumonia, 5×10^5 CFU/mL
[7] = Serratia marcescens, 5×10^5 CFU/mL
[8] = Proteus mirabilis, 5×10^5 CFU/mL
[9] = Moraxella catarrhalis, 5×10^5 CFU/mL

PRT999 (PEDNCTCHHGHCQRSSCVCDVGWTGPECE; listed as Homo sapiens)
MIC (Pseudomonas aeruginosa): 25 µg/mL | MIC (Enterobacter cloacae): 25 µg/mL | MIC (Citrobacter diversus): 12.5 µg/mL | MIC (Proteus vulgaris): 25 µg/mL | MIC (Aeromonas hydrophila): 50 µg/mL | MIC (Klebsiella pneumonia): 12.5 µg/mL | MIC (E. coli DH5α): 12.5 µg/mL | MIC (Serratia marcescens): 12.5 µg/mL | MIC (Proteus mirabilis): 50 µg/mL | MIC (Moraxella catarrhalis): 25 µg/mL | MIC (E. coli BL21; E. coli BL21): 50 µg/mL

PRT430 (DIDECAQGAGILCTFRCLNVPGSYQCACPEQGYTMTANGRSCK; listed as Homo sapiens)
MIC (Pseudomonas aeruginosa; 5×10^5 CFU/mL): 50 µg/mL | MIC (Enterobacter cloacae; 5×10^5 CFU/mL): 12.5 µg/mL | MIC (Citrobacter diversus; 5×10^5 CFU/mL): 50 µg/mL | MIC (Proteus vulgaris; 5×10^5 CFU/mL): 50 µg/mL | MIC (Aeromonas hydrophila; 5×10^5 CFU/mL): 25 µg/mL | MIC (Klebsiella pneumonia; 5×10^5 CFU/mL): 25 µg/mL | MIC (E. coli DH5α): 12.5 µg/mL | MIC (Serratia marcescens; 5×10^5 CFU/mL): 12.5 µg/mL | MIC (Proteus mirabilis; 5×10^5 CFU/mL): 12.5 µg/mL | MIC (Moraxella catarrhalis; 5×10^5 CFU/mL): 25 µg/mL | MIC (E. coli BL21; E. coli BL21, 5×10^5 CFU/mL): 25 µg/mL

PRT1128 (VANSCTPNPCENDGVCTDIGGDFRCRCPAGFIDKTCS; listed as Homo sapiens)
MIC P. aeruginosa (Pseudomonas aeruginosa; 5×10^5 CFU/mL): 12.5 µg/mL | MIC E. cloacae (Enterobacter cloacae; 5×10^5 CFU/mL): 12.5 µg/mL | MIC C. diversus (Citrobacter diversus; 5×10^5 CFU/mL): 12.5 µg/mL | MIC P. vulgaris (Proteus vulgaris; 5×10^5 CFU/mL): 50 µg/mL | MIC A. hydrophila (Aeromonas hydrophila; 5×10^5 CFU/mL): 50 µg/mL | MIC K. pneumonia (Klebsiella pneumonia; 5×10^5 CFU/mL): 50 µg/mL | MIC (E. coli DH5α): 12.5 µg/mL | MIC S. marcescens (Serratia marcescens; 5×10^5 CFU/mL): 12.5 µg/mL | MIC P. mirabilis (Proteus mirabilis; 5×10^5 CFU/mL): 12.5 µg/mL | MIC M. catarrhalis (Moraxella catarrhalis; 5×10^5 CFU/mL): 50 µg/mL | MIC E. coli BL21 (E. coli BL21; 5×10^5 CFU/mL): 50 µg/mL

PRT1271 (DTNECSINNGGCQQVCVNTVGSYECQCHPGYKLHWNKKDCV; listed as Homo sapiens)
MIC against P. aeruginosa (Pseudomonas aeruginosa; [1]): 12.5 µg/mL | MIC against E. cloacae (Enterobacter cloacae; [2]): 12.5 µg/mL | MIC against C. diversus (Citrobacter diversus; [3]): 12.5 µg/mL | MIC against P. vulgaris (Proteus vulgaris; [4]): 50 µg/mL | MIC against A. hydrophila (Aeromonas hydrophila; [5]): 50 µg/mL | MIC against K. pneumonia (Klebsiella pneumonia; [6]): 50 µg/mL | MIC (E. coli DH5α): 25 µg/mL | MIC against S. marcescens (Serratia marcescens; [7]): 12.5 µg/mL | MIC against P. mirabilis (Proteus mirabilis; [8]): 12.5 µg/mL | MIC against M. catarrhalis (Moraxella catarrhalis; [9]): 50 µg/mL | MIC against E. coli BL21 (E. coli BL21; E. coli BL21, 5×10^5 CFU/mL): 50 µg/mL

PRT1228 (CPPCPKYASCHNSTHCTCEDGFRARSGRTYFHDSSEKCE; listed as Homo sapiens)
MIC against P. aeruginosa (Pseudomonas aeruginosa; [1]): 50 µg/mL | MIC against E. cloacae (Enterobacter cloacae; [2]): 12.5 µg/mL | MIC against C. diversus (Citrobacter diversus; [3]): 50 µg/mL | MIC against P. vulgaris (Proteus vulgaris; [4]): 25 µg/mL | MIC against A. hydrophila (Aeromonas hydrophila; [5]): 25 µg/mL | MIC against K. pneumonia (Klebsiella pneumonia; [6]): 25 µg/mL | MIC (E. coli DH5α): 12.5 µg/mL | MIC against S. marcescens (Serratia marcescens; [7]): 50 µg/mL | MIC against P. mirabilis (Proteus mirabilis; [8]): 12.5 µg/mL | MIC against M. catarrhalis (Moraxella catarrhalis; [9]): 25 µg/mL | MIC against E. coli BL21 (E. coli BL21; E. coli BL21, 5×10^5 CFU/mL): 25 µg/mL

PRT544 (CDCGARLCDELTGQCICPPRTIPPDCLLCQPQTFGCHPLVGCEE; listed as Homo sapiens)
MIC against P. aeruginosa (Pseudomonas aeruginosa; 5×10^5 CFU/mL): 12.5 µg/mL | MIC against E. cloacae (Enterobacter cloacae; 5×10^5 CFU/mL): 12.5 µg/mL | MIC against C. diversus (Citrobacter diversus; 5×10^5 CFU/mL): 12.5 µg/mL | MIC against P. vulgaris (Proteus vulgaris; 5×10^5 CFU/mL): 12.5 µg/mL | MIC against A. hydrophila (Aeromonas hydrophila; 5×10^5 CFU/mL): 12.5 µg/mL | MIC against K. pneumonia (Klebsiella pneumonia; 5×10^5 CFU/mL): 25 µg/mL | MIC (E. coli DH5α): 12.5 µg/mL | MIC against S. marcescens (Serratia marcescens; 5×10^5 CFU/mL): 12.5 µg/mL | MIC against P. mirabilis (Proteus mirabilis; 5×10^5 CFU/mL): 12.5 µg/mL | MIC against M. catarrhalis (Moraxella catarrhalis; 5×10^5 CFU/mL): 12.5 µg/mL | MIC against E. coli BL21 (E. coli BL21; 5×10^5 CFU/mL): 25 µg/mL

PRT1157 (DVSEFSLVPCQNGTDCIKISNDVMCICSPIFTDLLCK; listed as Homo sapiens)
MIC P. aeruginosa (Pseudomonas aeruginosa; 5×10^5 CFU/mL): 50 µg/mL | MIC E. cloacae (Enterobacter cloacae; 5×10^5 CFU/mL): 12.5 µg/mL | MIC C. diversus (Citrobacter diversus; 5×10^5 CFU/mL): 50 µg/mL | MIC P. vulgaris (Proteus vulgaris; 5×10^5 CFU/mL): 25 µg/mL | MIC A. hydrophila (Aeromonas hydrophila; 5×10^5 CFU/mL): 25 µg/mL | MIC K. pneumonia (Klebsiella pneumonia; 5×10^5 CFU/mL): 25 µg/mL | MIC (E. coli DH5α): 12.5 µg/mL | MIC S. marcescens (Serratia marcescens; 5×10^5 CFU/mL): 50 µg/mL | MIC P. mirabilis (Proteus mirabilis; 5×10^5 CFU/mL): 12.5 µg/mL | MIC M. catarrhalis (Moraxella catarrhalis; 5×10^5 CFU/mL): 25 µg/mL | MIC E. coli BL21 (E. coli BL21; 5×10^5 CFU/mL): 25 µg/mL
